According to US20040091900A1, “Materials and methods for providing plants with increased resistance to environmental stress” (priority 2002, published 2004):

Key:
SspI = assay: Compatible solute assay: protection of SspI activity during heat treatment; format: biochemical; conditions: for protection of SspI activity / protection of SspI function: 50° C. for 15 min; for protection of SspI activity, time course: at least 25 min at 50° C., without sugars almost 90% activity lost; for protection of SspI function: 14 mM sugar (physiological concentration)
Description: SspI (New England Biolabs) is a bacterial restriction enzyme that cuts double stranded DNA. In this assay it cuts pGEX-4T-2 circular plasmid twice and generates 3.77 kb and 1.19 kb bands in the reaction buffer (50 mM NaCl, 100 mM Tris-HCL, […] MgCl2, 0.025% Triton X-100 pH 7.5 at 25° C.). Five units of SspI in reaction buffer in the absence of maltose were exposed to 50° C. for 15 min where 50% of the enzyme activity was lost and also exposed to heat temperature in the presence of 14, 100, 200 and 400 mM maltose. Then substrate, 0.5 μg of pGEX-4T-2 circular plasmid (Amersham Biosciences, Piscataway, N.J.), was added to the reaction mixture and incubated at 37 ° C. for 1 hr. […] To visualize the products, 1% agarose gel was run and 22 μl of total 50 μl reaction was loaded on to gel. The gel was run at 100 V for 30 min and stained with EtBr to visualize the product. The top band was quantified to assess the protection by maltose. Also, the same assay was done using sucrose, trehalose and glucose to compare the ability of maltose as a compatible solute. A time course experiment was conducted where SspI was treated in the absence and in the presence of 400 mM maltose, glucose, sucrose and trehalose at 50° C. for 0, 5, 10, 15, 20 and 25 min.
Compatible solutes can stabilize proteins and membranes and contribute to cell osmotic potential during stress. The compatible solute potential of maltose was tested for three different enzymes namely; SspI, Glucose-6-phosphate dehydrogenase (G6PDH) and alcohol dehydrogenase (ADH). The restriction enzyme, SspI (FIG. 4A), cuts the substrate plasmid (pGEX-4T-2; 4.97 kb) twice leading to 1 and 4 kb plasmid fragments, when the enzyme is fully functional. […] When the intensity of the 5 kb top band and the 4 kb band was equal, the enzyme was considered to have lost 50% activity. Sspl was exposed to 50° C. for 15 min (FIG. 4A) in the absence of maltose (0 mM as a control) and in the presence of (14, 100, 200, and 400 mM) maltose. The 5 kb top band, which represented the loss of activity, was quantified to determine relative protection. When the enzyme was fully active, the top band was not visible (FIG. 4A, lane C) and the intensity of the top band increased with increased loss of enzyme activity (lane 2; 0 mM sugars). […] This protection increased with the increasing maltose concentration (FIG. 4A). At 200 and 400 mM, the intensity of the top band was much less compared to 0 mM maltose.

[1] = target: T1, Glucose-6-phosphate dehydrogenase (G6PDH) (Leuconostoc mesenteroides, UniProt P11411); assay: Compatible solute assay: protection of G6PDH activity during heat shock; format: biochemical; conditions: 14, 100, 200, 400 mM sugar, 48° C. for 15 min
T1 construct: purchased Worthington Biochemical Company
T1 sequence (P11411 whole entry): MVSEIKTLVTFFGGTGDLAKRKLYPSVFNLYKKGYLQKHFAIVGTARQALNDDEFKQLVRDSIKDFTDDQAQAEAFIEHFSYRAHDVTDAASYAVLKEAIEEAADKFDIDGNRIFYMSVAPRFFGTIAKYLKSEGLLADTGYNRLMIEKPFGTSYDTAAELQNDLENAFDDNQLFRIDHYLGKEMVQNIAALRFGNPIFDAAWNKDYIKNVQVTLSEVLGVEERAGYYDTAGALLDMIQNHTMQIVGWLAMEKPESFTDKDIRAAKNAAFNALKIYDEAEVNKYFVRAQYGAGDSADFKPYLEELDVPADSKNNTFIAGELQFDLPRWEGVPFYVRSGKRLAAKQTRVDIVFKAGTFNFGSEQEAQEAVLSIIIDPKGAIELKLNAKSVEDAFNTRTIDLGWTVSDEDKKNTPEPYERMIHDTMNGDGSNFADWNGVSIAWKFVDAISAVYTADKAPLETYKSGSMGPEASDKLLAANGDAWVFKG
Description: Glucose-6-phosphate dehydrogenase (G6PDH): Lyophilized G6PDH from Leuconostoc mesenteroides was purchased from Worthington Biochemical Company. G6PDH in 50 mM Tris-HCl pH 7.8 was exposed to 48° C. for 15 min, which reduced activity by 50%. G6PDH in 50 mM Tris-HCl pH 7.8 was heat shocked in the absence and presence of 14, 100, 200, and 400 mM sugars: maltose, trehalose, glucose and sucrose. […] The reaction (1.5 ml) included 2.97 mM MgCl2, 50 mM Tris-HCl pH 7.8, 0.6 mM β-NADP^+ (freshly prepared), 10 mM Glucose-6-phosphate , and 595 ng heat shocked G6PDH. Production of NADPH was followed for 3 min at 340 nm using Lambda 3A UV/VIS spectrophotometer (PERKIN-ELMER). A time course experiment with two replications was conducted where G6PDH was treated in the absence and in the presence of 400 mM maltose, glucose, sucrose and trehalose at 48° C. for 0, 10, 15, 20 and 25 min.
To test whether this protection is general, compatible solute assays were performed using G6PDH, which uses D-glucose-6-phosphate and NAD(P)^+ as substrates to produce D-glucono-δ-lactone-P and NAD(P)H (FIG. 4B). […] The same performance was seen (FIG. 7B), when the time was extended to 25 min in the presence of 400 mM of the above sugars.

[2] = test system: photosynthetic electron transport chain of thylakoid membranes; assay: In vitro heat shock of thylakoids, whole electron transport chain assay with DCPIP; format: biochemical, Pea; conditions: 40° C. for 4 min, 30% activity remained without sugars
Description: (§1) Pea chloroplast was isolated according to Cline (1993). Aerial portions of 50 g pea plant were chopped into small pieces into 200 ml of ice cold GR-buffer (50 mM HEPES/adjust pH 7.5 with KOH, 0.33 M sorbitol, 1 mM MgCl2, 1 mM MnCl2, 2 mM EDTA, 5 mM Na-ascorbate, 1%, BSA) and homogenized using a probe (named PTA 35/2 m). The homogenate was filtered through 1 layer of Mira cloth and centrifuged at 2000×g for 3 min in a swing-out rotor. Pellet was resuspended in GR buffer, overlayed on a Percoll gradient and centrifuged at 2000×g for 15 min in a swing out rotor. Intact plastids were collected, diluted three times with buffer (50 MM HEPES/KOH pH 8, 0.33 M sorbitol), and pelleted 1.500×g for 5 min. The pellet was resuspended in 25 ml of buffer (50 mM HEPES/KOH pH 8, 0.33 M sorbitol) and chlorophyll content was quantified.
(§2) Thylakoids were isolated according to Santarius (1996). The isolated chloroplast pellets were ruptured by resuspending at 1 mg/ml in 10 mM Hepes/KOH, pH 8, 5 mM MgCl2, and incubating 2 min on ice. Then, wash buffer 1:1 (70 mM KCl, 30 mM NaNO3, 20 mM K2SO4, 5 mM MgCl2, and 5 mM Hepes/KOH pH 7.5) was added and centrifuged 3300×g for 8 min to collect thylakoid membranes. The pellet was washed at 1 mg/ml in wash buffer and centrifuged at 3300×g for 8 min. Thylakoids were resuspended in wash buffer corresponding to 1 mg/ml chlorophyll.
Heat shock: Aliquots of 0.2 ml thylakoid in wash buffer (70 mM KCl, 30 mM NaNO3, 20 mM K2SO4, 5 mM MgCl2, and 5 mM Hepes/KOH pH 7.5) corresponding to 0.5 mg/ml chlorophyll were, exposed to heat shock at 40° C. for 4 min in the absence and presence of 2.5, 14, 28, 56, and 112 mM maltose, glucose and trehalose. Full activity of the whole electron transport chain was measured after isolation of thylakoid membranes. Five independent experiments with 3 replications each were done.
(§3) Whole electron transport chain assay, with DCPIP: This assay was done according to Hipkins and Baker (1986). Assay buffer included 0.1 M sorbitol, 50 mM Hepes-KOH pH 7.6, 5 mM NaCl, 5 mM MgCl2, 0.1 mM DCPIP. The reaction was mixed after addition of thylakoid corresponding to 25 μg/ml chlorophyll and illuminated for 10 sec at 200 μmol photons m^−2 sec^−1 light intensity. Activity of electron transport chain was determined using redox dye DCPIP reduction at 595 nm.
Maltose, trehalose and glucose were tested in vitro for compatible solute properties using thylakoid membranes for the functionality of electron transport chain against heat denaturation (FIG. 5) and freezing stress (FIG. 6). Pea thylakoids were exposed to 40° C. for 4 min (FIG. 5), where 30% of electron transport chain activity remained in the absence of compatible solute sugars. Electron transport chain activity was followed by reduction of a redox dye 2,6-dichlorophenolindophenol (DCPIP), which accepts electrons from QB of PSII and FeSA of PSI (Häder and Tevini, 1987). At physiological concentrations of 2.5 and 14 mM maltose, photosynthetic electron transport chain activity was protected 3 and 5%. respectively, during heat shock.

[3] = test system: photosynthetic electron transport chain of thylakoid membranes; assay: In vitro freezing stress of thylakoids, whole electron transport chain assay with DCPIP; format: biochemical, Pea; conditions: −15° C. for 20 hr; for electron transport chain activity protection after freezing: 60% reduction without sugars
Description: as §1, §2
Freezing stress: Aliqutots of 0.2 ml thylakoid in wash buffer (70 mM KCl, 30 mM NaNO3, 20 mM K2SO4, 5 mM MgCl2, and 5 mM Hepes/KOH pH 7.5) corresponding to 0.5 mg/ml chlorophyll were exposed to freezing stress at −15° C. for 20 hrs in absence and presence of 2.5, 14, 28, 56, and 112 mM maltose, glucose and trehalose. Full activity of the whole electron transport chain was measured after isolation of thylakoid membranes. Four independent experiments with three (3) replications each were done.
as §3
Pea thylakoids were frozen (FIG. 6) at −15° C. for 20 hr, which caused a 60% reduction of electron transport chain activity. […] This protection increased gradually to 93% with the increasing concentration of maltose and was very similar to that of trehalose. Glucose at 112 mM gave 47% protection, which was much less than that of maltose or trehalose.

Structure (SMILES) | protection of SspI activity (SspI; 400 mM sugar) | protection of SspI activity, time course (SspI; 400 mM sugar) | protection of SspI function (SspI) | protection of SspI function (SspI; listed as Maltose) | protection of SspI activity (SspI; 200 mM sugar) | protection of G6PDH activity [1] | electron transport chain activity protected during heat shock ([2]; 2.5 mM sugar) [%] | electron transport chain activity protected during heat shock ([2]; 14 mM sugar) [%] | electron transport chain activity protected during heat shock ([2]; 112 mM sugar) [%] | electron transport chain activity protection after freezing ([3]; 2.5 mM sugar) [%] | electron transport chain activity protection after freezing ([3]; 14 mM sugar) [%] | electron transport chain activity protection after freezing, reached with increasing concentration ([3]; increasing concentration (concentration not given; up to 112 mM tested)) [%] | electron transport chain activity protection after freezing ([3]; 112 mM sugar) [%]
OC[C@H]1O[C@@](CO)(O[C@H]2O[C@H](CO)[C@@H](O)[C@H](O)[C@H]2O)[C@@H](O)[C@@H]1O [sucrose] | 100% | 100% | – | – | – | – | – | – | – | – | – | – | –
OC[C@H]1O[C@H](O[C@H]2[C@H](O)[C@@H](O)[C@H](O)O[C@@H]2CO)[C@H](O)[C@@H](O)[C@@H]1O [maltose, 4-O-α-D-Glucopyranosyl-β-D-glucose] | 85-90% | about 90% | able to partially protect SspI function | performed as well as trehalose | 80-90% | performed as well as the other compatible solute sugars | 3 | 5 | 45 | 2 | 24 | 93 | –
OC[C@H]1O[C@H](O[C@H]2O[C@H](CO)[C@@H](O)[C@H](O)[C@H]2O)[C@H](O)[C@@H](O)[C@@H]1O [trehalose] | 100% | 100% | – | – | 100% | – | – | – | 54 | – | – | – | –
O=C[C@H](O)[C@@H](O)[C@H](O)[C@H](O)CO [glucose, reference compound] | 100% | 100% | – | – | – | – | – | – | 30 | – | – | – | 47
